Data: patent US10752587B2, “Homobispiperidinyl derivatives as liver X receptor beta agonists, compositions and their use” (Merck Sharp & Dohme Corp., priority 2015, dated 2020)

How the values were obtained:
[1] = target: T1, glutathione-S-transferase (GST) tagged LXRalpha LBD (ligand binding domain) (Homo sapiens, UniProt Q13133); assay: LanthaScreen TR-FRET Liver X Receptor Coactivator Assay, co-activator recruitment to LXRalpha LBD; format: biochemical; details: for Emax: efficacy at max dose, in relation to reference dual agonist T0901317, read-out: LXR alpha Activity @ max dose (%); for LXR alpha IP (nM) / EC50: potency (Inflection Point, IP), co-activator recruitment to LXRalpha LBD, in relation to T0901317; for EC50: read-out: LXR alpha IP
T1 construct: purchased Invitrogen pv4655
T1 sequence (Q13133 209-447 limits assumed): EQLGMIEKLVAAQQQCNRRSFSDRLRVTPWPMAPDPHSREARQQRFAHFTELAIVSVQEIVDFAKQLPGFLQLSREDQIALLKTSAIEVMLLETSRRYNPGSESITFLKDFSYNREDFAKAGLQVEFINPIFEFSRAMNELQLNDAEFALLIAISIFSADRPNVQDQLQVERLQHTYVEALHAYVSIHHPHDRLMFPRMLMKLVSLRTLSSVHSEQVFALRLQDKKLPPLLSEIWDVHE
Outline: (§1)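 Efficacy (Emax) and inflection-point potency were scaled to reference agonist T0901317, acting on both LXR subtypes. Ligand-driven coactivator peptide recruitment was detected by TR-FRET after room-temperature incubation with terbium anti-GST antibody.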

[2] = target: T2, glutathione-S-transferase (GST) tagged LXRbeta LBD (ligand binding domain) (Homo sapiens, UniProt P55055); assay: LanthaScreen TR-FRET Liver X Receptor Coactivator Assay, co-activator recruitment to LXRbeta LBD; format: biochemical; details: for Emax: efficacy at max dose, in relation to reference dual agonist T0901317, read-out: LXR beta Activity @ max dose (%); for EC50: potency (Inflection Point, IP), co-activator recruitment to LXRbeta LBD, in relation to T0901317, read-out: LXR beta IP
T2 construct: purchased Invitrogen pv4658.pps
T2 sequence (P55055 222-460 limits assumed): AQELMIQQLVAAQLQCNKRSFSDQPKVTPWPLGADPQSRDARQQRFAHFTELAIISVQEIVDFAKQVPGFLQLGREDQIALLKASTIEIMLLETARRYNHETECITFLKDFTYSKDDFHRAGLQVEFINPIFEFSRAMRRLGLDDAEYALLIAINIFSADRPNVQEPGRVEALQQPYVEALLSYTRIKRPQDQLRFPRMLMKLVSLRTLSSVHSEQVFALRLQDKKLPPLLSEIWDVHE
Outline: as §1

SMILES | Emax [1] [%] | LXR alpha IP (nM) [1] | Emax [2] [%] | EC50 [2] [µM] | EC50 [1] [µM]
CNC(=O)c1ccc(N2CCC(CC3CCN(C(=O)[C@](O)(c4cccc(OC)c4)C(F)(F)F)CC3)CC2)cc1Cl [Example 7-33, 2-chloro-N-methyl-4-[4-({1-[(2R)-3,3,3-trifluoro-2-hydroxy-2-(3-methoxyphenyl)propanoyl]piperidin-4-yl}methyl)piperidin-1-yl]benzamide] | 12 | NO IP | 60 | 0.01 | 
CNC(=O)c1ccc(N2CCC(CC3CCN(C(=O)C4(c5ccccc5F)CCCC4)CC3)CC2)cc1Cl [Example 7-34, 2-chloro-4-{4-[(1-{[1-(2-fluorophenyl)cyclopentyl]carbonyl}piperidin-4-yl)methyl]piperidin-1-yl}-N-methylbenzamide] | 19 |  | 82 | 0.169 | 2.19
CNC(=O)c1ccc(N2CCC(CC3CCN(C(=O)C(O)(c4cccc(C(F)(F)F)c4)C(F)(F)F)CC3)CC2)cc1Cl (stereo not drawn) [Example 7-35, 2-chloro-N-methyl-4-{4-[(1-{3,3,3-trifluoro-2-hydroxy-2-[3-(trifluoromethyl)phenyl]propanoyl}piperidin-4-yl)methyl]piperidin-1-yl}benzamide] | 25 |  | 78 | 0.096 | 0.784
CNC(=O)c1ccc(N2CCC(CC3CCN(C(=O)C(O)(c4cccc(C)c4)C(F)(F)F)CC3)CC2)cc1Cl (stereo not drawn) [Example 7-36, 2-chloro-N-methyl-4-[4-({1-[3,3,3-trifluoro-2-hydroxy-2-(3-methylphenyl)propan-oyl]piperidin-4-yl}methyl)piperidin-1-yl]benzamide] | 19 |  | 65 | 0.028 | 0.762
CNC(=O)c1ccc(N2CCC(CC3CCN(C(=O)C(O)(c4cccc(Cl)c4)C(F)(F)F)CC3)CC2)cc1Cl (stereo not drawn) [Example 7-37, 2-chloro-4-[4-({1-[2-(3-chlorophenyl)-3,3,3-trifluoro-2-hydroxypropanoyl]piperidin-4-yl}methyl)piperidin-1-yl]-N-methylbenzamide] | 27 |  | 90 | 0.016 | 0.34
CNC(=O)c1ccc(N2CCC(CC3CN(C(=O)[C@](O)(c4cccc(OC)c4)C(F)(F)F)C3)CC2)cc1Cl [Example 7-38, 2-chloro-N-methyl-4-[4-({1-[(2R)-3,3,3-trifluoro-2-hydroxy-2-(3-methoxyphenyl)propanoyl]azetidin-3-yl}methyl)piperidin-1-yl]benzamide] | 1 | NO IP | 67 | 0.136 | 
CCOc1cccc([C@@](O)(C(=O)N2CC(CC3CCN(c4ccc(C(=O)NC)c(Cl)c4)CC3)C2)C(F)(F)F)c1 [Example 7-39, 2-chloro-4-[4-({1-[(2R)-2-(3-ethoxyphenyl)-3,3,3-trifluoro-2-hydroxypropanoyl]azetidin-3-yl}methyl)piperidin-1-yl]-N-methylbenzamide] | 0 | NO IP | 59 | 0.091 | 
CN(C)C(=O)c1ccc(N2CCC(CC3CN(C(=O)[C@](O)(c4cc(F)cc(Cl)c4)C(F)(F)F)C3)CC2)nc1Cl [Example 7-40, 2-chloro-6-[4-({1-[(2R)-2-(3-chloro-5-fluorophenyl)-3,3,3-trifluoro-2-hydroxypropanoyl]azetidin-3-yl}methyl)piperidin-1-yl]-N,N-dimethylpyridine-3-carboxamide] | 49 |  | 113 | 0.004 | 0.291
CN(C)C(=O)c1ccc(N2CCC(CC3CN(C(=O)[C@](O)(c4cccc(Cl)c4)C(F)(F)F)C3)CC2)nc1Cl [Example 7-41, 2-chloro-6-[4-({1-[(2R)-2-(3-chlorophenyl)-3,3,3-trifluoro-2-hydroxypropanoyl]azetidin-3-yl}methyl)piperidin-1-yl]-N,N-dimethylpyridine-3-carboxamide] | 35 |  | 110 | 0.011 | 0.525
CC(C)Oc1cccc([C@@](O)(C(=O)N2CC(CC3CCN(c4ccc(C(=O)N(C)C)c(Cl)n4)CC3)C2)C(F)(F)F)c1 [Example 7-42, 2-chloro-N,N-dimethyl-6-{4-[(1-{(2R)-3,3,3-trifluoro-2-hydroxy-2-[3-(1-methylethoxy)phenyl]propanoyl}azetidin-3-yl)methyl]piperidin-1-yl}pyridine-3-carboxamide] | 9 | NO IP | 83 | 0.03 | 
CCc1cccc([C@@](O)(C(=O)N2CC(CC3CCN(c4ccc(C(=O)N(C)C)c(Cl)n4)CC3)C2)C(F)(F)F)c1 [Example 7-43, 2-chloro-6-[4-({1-[(2R)-2-(3-ethylphenyl)-3,3,3-trifluoro-2-hydroxypropanoyl]azetidin-3-yl}methyl)piperidin-1-yl]-N,N-dimethylpyridine-3-carboxamide] | 16 | NO IP | 80 | 0.033 | 
CCOc1cccc([C@@](O)(C(=O)N2CC(CC3CCN(c4ccc(C(=O)N(C)C)c(Cl)n4)CC3)C2)C(F)(F)F)c1 [Example 7-44, 2-chloro-6-[4-({1-[(2R)-2-(3-ethoxyphenyl)-3,3,3-trifluoro-2-hydroxypropanoyl]azetidin-3-yl}methyl)piperidin-1-yl]-N,N-dimethylpyridine-3-carboxamide] | 8 | NO IP | 75 | 0.034 | 
COc1cccc([C@@](O)(C(=O)N2CC(CC3CCN(c4ccc(C(=O)N(C)C)c(Cl)n4)CC3)C2)C(F)(F)F)c1 [Example 7-45, 2-chloro-N,N-dimethyl-6-[4-({1-[(2R)-3,3,3-trifluoro-2-hydroxy-2-(3-methoxyphenyl)propanoyl]azetidin-3-yl}methyl)piperidin-1-yl]pyridine-3-carboxamide] | 14 | NO IP | 92 | 0.022 | 
CN(C)C(=O)c1ccc(N2CCC(CC3(C)CCN(C(=O)[C@](O)(c4cc(F)cc(Cl)c4)C(F)(F)F)CC3)CC2)nc1Cl [Example 7-46, 2-chloro-6-[4-({1-[(2R)-2-(3-chloro-5-fluorophenyl)-3,3,3-trifluoro-2-hydroxypropanoyl]-4-methylpiperidin-4-yl}methyl)piperidin-1-yl]-N,N-dimethylpyridine-3-carboxamide] | 46 |  | 109 | 0.002 | 0.04
CN(C)C(=O)c1ccc(N2CCC(CC3(C)CCN(C(=O)[C@](O)(c4cccc(Cl)c4)C(F)(F)F)CC3)CC2)nc1Cl [Example 7-47, 2-chloro-6-[4-({1-[(2R)-2-(3-chlorophenyl)-3,3,3-trifluoro-2-hydroxypropanoyl]-4-methylpiperidin-4-yl}methyl)piperidin-1-yl]-N,N-dimethylpyridine-3-carboxamide] | 22 |  | 66 | 0.003 | 0.06
CC(C)Oc1cccc([C@@](O)(C(=O)N2CCC(C)(CC3CCN(c4ccc(C(=O)N(C)C)c(Cl)n4)CC3)CC2)C(F)(F)F)c1 [Example 7-48, 2-chloro-N,N-dimethyl-6-{4-[(4-methyl-1-{(2R)-3,3,3-trifluoro-2-hydroxy-2-[3-(1-methylethoxy)phenyl]propanoyl}piperidin-4-yl)methyl]piperidin-1-yl}pyridine-3-carboxamide] | 16 | NO IP | 64 | 0.01 | 
CCc1cccc([C@@](O)(C(=O)N2CCC(C)(CC3CCN(c4ccc(C(=O)N(C)C)c(Cl)n4)CC3)CC2)C(F)(F)F)c1 [Example 7-49, 2-chloro-6-[4-({1-[(2R)-2-(3-ethylphenyl)-3,3,3-trifluoro-2-hydroxypropanoyl]-4-methylpiperidin-4-yl}methyl)piperidin-1-yl]-N,N-dimethylpyridine-3-carboxamide] | 8 | NO IP | 40 | 0.006 | 
CCOc1cccc([C@@](O)(C(=O)N2CCC(C)(CC3CCN(c4ccc(C(=O)N(C)C)c(Cl)n4)CC3)CC2)C(F)(F)F)c1 [Example 7-50, 2-chloro-6-[4-({1-[(2R)-2-(3-ethoxyphenyl)-3,3,3-trifluoro-2-hydroxypropanoyl]-4-methylpiperidin-4-yl}methyl)piperidin-1-yl]-N,N-dimethylpyridine-3-carboxamide] | 6 | NO IP | 47 | 0.01 | 
